From patent publication US7112578B2, “Methods and compositions for treatment of inflammatory disease” (priority 2000, dated 2006)

How the values were obtained:
Assay type in all cases: in vivo, human
[1] = test system: knee arthritis; assay: Treatment of knee arthritis with a CMO compound and a tetracycline compound (case report)
Method: NSAID therapy was halted and tetracycline therapy was added.

[2] = test system: bilateral hip arthritis; assay: Treatment of bilateral hip arthritis with a CMO compound and doxycycline (case report)
Method: Doxycycline therapy was used for treatment of a middle aged person suffering from bilateral hip arthritis and experiencing severe pain despite increasing doses of NSAIDs. […] Cox-2 inhibitors were substituted for the NSAID agents with better results. However, over time, it was necessary to increase the doses of both agents to two to three times the initial dose in order to maintain adequate symptomatic relief. […] A CMO compound was added and the dosage of the other agents decreased to initial levels. […] The Cox-2 agent was discontinued with no increase in severity of symptoms.

[3] = test system: ankle and knee arthritis pain; assay: Treatment of ankle and knee arthritis with a CMO compound and doxycycline (case report)
[4] = test system: bee sting; assay: Relief of venom induced inflammation, topical treatment of bee stings (case report); conditions: bee sting on one arm of the same individual
Method: Different bee stings on the same individual were treated by two different methods. A bee sting on one arm was treated with papain with mild relief from pain and swelling. A second bee sting on the other arm was treated with papain, a eutectic mixture of local anaesthetics (EMLA®) and a topical steroid (Kenalog). […] The improved relief from pain was apparent even after all other sensation had returned to normal in the area which received the EMLA® treatment.

[5] = dosage of doxycycline and Cox-2 agent decreased to initial levels

Molecule: CCCC/C=C\CCCCCCCC(=O)OCCCCCCCCCCCCCCCC [CMO, cetyl myristoleate]
- symptoms when the agent was discontinued ([1]; despite increase in dose of the remaining agent): symptoms worsened
- symptomatic relief of knee arthritis ([1]; middle-aged, one patient): did not respond well
- side effects after a CMO compound was added [2, 5]: side effects disappeared
- symptomatic relief after a CMO compound was added [2, 5]: improved symptomatic relief
- symptoms when the agent was discontinued ([2]; patient on CMO compound and doxycycline): worsening symptomatology
- symptoms when the agent was discontinued ([3]; combination of CMO compound and doxycycline): Symptoms returned
- relief of ankle and knee arthritis pain ([3]; female senior citizen, CMO therapy alone): no or minimal relief

Molecule: C[C@H]1c2cccc(O)c2C(=O)C2=C(O)[C@]3(O)C(=O)C(C(N)=O)=C(O)[C@@H](N(C)C)[C@@H]3[C@@H](O)[C@@H]21 [doxycycline, reference compound]
- side effects at two to three times the initial dose of both agents ([2]; doxycycline with Cox-2 inhibitor): dizziness, nausea and abdominal pain
- side effect, doxycycline added to NSAIDs ([2]; middle aged person): gastrointestinal upset was problematic

B1: papain (protein, UniProt P00784 134-345, looked up)
Papain: IPEYVDWRQKGAVTPVKNQGSCGSCWAFSAVVTIEGIIKIRTGNLNEYSEQELLDCDRRSYGCNGGYPWSALQLVAQYGIHYRNTYPYEGVQRYCRSREKGPYAAKTDGVRQVQPYNEGALLYSIANQPVSVVLEAAGKDFQLYRGGIFVGPCGNKVDHAVAAVGYGPNYILIKNSWGTGWGENGYIRIKRGTGNSYGVCGLYTSSFYPVKN
notes: proteolytic enzyme applied topically
- relief from pain [4]: mild relief
- swelling [4]: mild relief
